According to US4616009A, “Neuroleptic indole-3-carboxamide derivatives” (Yoshitomi Pharmaceutical Industries, Ltd., priority 1983, dated 1986):
Like-named read-outs stand apart in the source and are kept apart here.

How the values were obtained:
[1] = reported in U.S. Pat. No. 3,527,761 / J. Med. Chem. 14, 1054 (1971); cited from earlier work
[2] = reported in U.S. Pat. No. 3,527,761 / J. Med. Chem. 14, 1054 (1971); cited from earlier work; remark: listed apart in the source
apomorphine [3] = assay: Antiapomorphine activity in mice (spontaneous motility, Animex); type: in vivo, mice (male dd-strain); settings: Mus musculus, 60 min before apomorphine hydrochloride 0.5 mg/kg s.c., dose for 50% suppression of spontaneous motility of control group over 20 min
Method: Antiapomorphine Activity in Mice
Groups of 5 male dd-strain mice were used. Test compounds were orally or intraperitoneally administered and 60 minutes thereafter, 0.5 mg/kg of apomorphine hydrochloride was subcutaneously administered. Immediately thereafter, spontaneous motility of the mice was measured with the aid of Animex (manufactured by Columbus Company, U.S.A.) for 20 minutes. The procedure was repeated three times with respective groups. The dose of test compounds required for 50% suppression of spontaneous motility of control group was graphically intraporated and determined as ED50 value.

[4] = Acute toxicity in mice, oral administration; type: in vivo; settings: 500 mg/kg, 5 days observation, male mice
From the text: The acute toxicity of the compounds of the present invention was studied in 5 male mice weighing 30 to 45 g.

[5] = reported; cited from earlier work
apomorphine [6] = assay: apomorphine-antagonistic activity (studies of the present inventors); settings: according to studies of the present inventors
[7] = antihypertensive activity; settings: according to studies of the present inventors
[8] = prior art; cited from earlier work

| SMILES | ED50 (apomorphine [3]; po) [mg/kg] | other results |
| --- | --- | --- |
| O=C(NC1CCN(CCc2c[nH]c3ccccc23)CC1)c1c[nH]c2ccccc12 [3-{2-[4-(3-indolecarboxamido)-piperidino]ethyl}indole] |  | antihypertensive activity [1]: having antihypertensive; antihistaminic activity [2]: antihistaminic activities |
| CCN1CCCC1CNC(=O)c1c(C)[nH]c2ccccc12 (stereo not shown) [Example 1, N-(1-ethyl-2-pyrrolidinylmethyl)-2-methylindole-3-carboxamide] | 17 |  |
| Cc1[nH]c2ccc(F)cc2c1C(=O)NC1CCN(Cc2ccccc2)CC1 [Example 2, N-(1-benzyl-4-piperidyl)-5-fluoro-2-methylindole-3-carboxamide] | 4.6 | mortality (acute toxicity) [4]: All animals were survived |
| O=C(NC1CCN(Cc2ccccc2)CC1)c1c[nH]c2ccc(F)cc12 [Example 3, N-(1-benzyl-4-piperidyl)-5-fluoroindole-3-carboxamide] | 9.5 |  |
| Cc1c(C(=O)NC2CCN(Cc3ccccc3)CC2)c2cc(F)ccc2n1C [Example 4, N-(1-benzyl-4-piperidyl)-5-fluoro-1,2-dimethylindole-3-carboxamide] | 27 |  |
| Cc1[nH]c2ccccc2c1C(=O)NC1CCN(Cc2ccccc2)CC1 [Example 7, N-(1-benzyl-4-piperidyl)-2-methylindole-3-carboxamide] | 8.7 |  |
| O=C(NC1CCN(Cc2ccccc2)CC1)c1c[nH]c2ccccc12 [Example 8, N-(1-Benzyl-4-piperidyl)indole-3-carboxamide] | 7 |  |
| CCN1CCCC1CNC(=O)c1c(C)[nH]c2ccc(Cl)cc12 (stereo not shown) [Example 9, 5-Chloro-N-(1-ethyl-2-pyrrolidinylmethyl)-2-methylindole-3-carboxamide] | 30 |  |
| CCN1CCCC1CNC(=O)c1c(C)[nH]c2ccc(F)cc12 (stereo not shown) [Example 10, N-(1-Ethyl-2-pyrrolidinylmethyl)-5-fluoro-2-methylindole-3-carboxamide] |  | ED50 (apomorphine [3]; ip): 10 mg/kg |
| Cc1[nH]c2ccc(F)cc2c1C(=O)NC1CCN(Cc2ccccc2)C1 (stereo not shown) [Example 12, N-(1-Benzyl-3-pyrrolidinyl)-5-fluoro-2-methylindole-3-carboxamide] | 5.6 |  |
| Cc1[nH]c2ccc(F)cc2c1C(=O)NC1CCN(Cc2ccc(Cl)cc2)CC1 [Example 13, N-[1-(p-Chlorobenzyl)-4-piperidyl]-5-fluoro-2-methylindole-3-carboxamide] | 5.6 |  |
| Cc1[nH]c2ccc(F)cc2c1C(=O)NC1CCN(Cc2ccc(F)cc2)CC1 [Example 14, 5-Fluoro-N-[1-(p-fluorobenzyl)-4-piperidyl]-2-methylindole-3-carboxamide] | 5.2 |  |
| Cc1[nH]c2ccc(F)cc2c1C(=O)NC1CCN(Cc2cccc(Cl)c2)CC1 [Example 18, N-[1-(m-Chlorobenzyl)-4-piperidyl]-5-fluoro-2-methylindole-3-carboxamide] | 24 |  |
| CCN1CCCC1CNC(=O)c1cc(S(N)(=O)=O)ccc1OC (stereo not shown) [Sulpiride, reference compound] | 330 | bioavailability in oral administration [5]: low bioavailability |
| O=C(NC1CCN(CCc2c[nH]c3ccccc23)CC1)c1ccccc1 [indoramin, 3-[2-(4-benzamido-1-piperidyl)-ethyl]indole] |  | apomorphine-antagonistic activity (apomorphine [6]): weak; antihypertensive activity [7]: relatively strong; antihypertensive activity [1]: stronger antihypertensive activity; antihistaminic activity [2]: exhibits antihistaminic activity; anticonvulsant activity [8]: anticonvulsant activity |
